Source: patent US20130288989A1, “NEW USE OF CHEMICAL INGREDIENTS IN CYNOMORIUM AS PHYTOESTROGEN” (TIANJIN UNIVERSITY OF TRADITIONAL CHINESE MEDICINE, priority 2010, published 2013)
Entries after “also recorded” stand apart in the source; their conditions may differ.

Key:
Type in all cases: cell-based
ERβ = target: T1, ERβ (Homo sapiens, UniProt Q92731); assay: ERβ luciferase reporter gene transcription activation in transfected Hela cells; settings: for ERβ (% of the control) mean ± S.D. / ERβ (% of estradiol): Hela cells; for ERβ (% of the control) mean ± S.D.: 24 h; for ERβ (% of estradiol): estradiol at 10^−8M
T1 construct: expressed in transfected cells; host or cells: Hela cells (ER expression free)
T1 sequence (Q92731 whole entry): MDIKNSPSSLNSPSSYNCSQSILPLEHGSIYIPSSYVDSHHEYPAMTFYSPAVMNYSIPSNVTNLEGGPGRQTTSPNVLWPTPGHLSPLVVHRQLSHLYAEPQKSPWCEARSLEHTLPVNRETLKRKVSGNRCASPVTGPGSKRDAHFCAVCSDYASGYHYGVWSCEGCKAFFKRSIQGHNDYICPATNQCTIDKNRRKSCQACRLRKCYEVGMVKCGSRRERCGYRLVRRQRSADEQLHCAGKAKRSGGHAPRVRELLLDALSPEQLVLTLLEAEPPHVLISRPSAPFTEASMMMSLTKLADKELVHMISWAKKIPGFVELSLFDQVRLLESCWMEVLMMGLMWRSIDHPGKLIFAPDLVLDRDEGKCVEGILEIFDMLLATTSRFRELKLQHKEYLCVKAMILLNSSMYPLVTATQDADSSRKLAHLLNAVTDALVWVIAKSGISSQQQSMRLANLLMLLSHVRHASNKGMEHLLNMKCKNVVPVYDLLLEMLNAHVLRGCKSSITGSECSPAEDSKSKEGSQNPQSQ
From the text: (§1) Actually, estrogens show their biological activity by regulating estrogen responding genetic transcription.
(§2) Formulation of sample solutions of catechin, (−)epicatechin-3-O-gallate, naringenin-4′-O-glucoside, phlorizin, emodin, chrysophanol (separately obtained from Example 1):
(§3) Catechin, (−)epicatechin-3-O-gallate, naringenin-4′-O-glucoside, phlorizin, emodin, chrysophanol in corresponding weights were separately weighed precisely, than added with DMSO for dissolution, the corresponding sample solution high dose groups (10 μM or 1 μM), were diluted in certain times to separately obtain low dose groups (1 μM to 0.001 μM).
(§4) Under condition of 37° C. and 5% CO2, Hela cells were cultured in phenol red-free high sugar DMEM culture medium containing 10% calf serum in incubator, the cells were spread in 60% density on 96-well plate when cell density was about 90%, each well was added with 150 ul of phenol red-free DMEM culture medium containing 10% serum, cultivation was performed overnight. To each well of the 96-well plate, 100 ul of serum-free DMEM culture medium and 0.4 μg plasmid (ptk-ERE-luc 2 μg, tk-Renila 1 μg, ERα or ERβ 1 μg) were used for transfection. After 6 h of transfection, each well was added with 150 ul of serum-free phenol red-free DMEM culture medium. Three wells were selected form each group, added with 10^−8M estradiol E2, and substance to be tested in different concentrations, 15 ul/well (sample 4-5 concentration gradient groups), continuously cultured under condition of 37° C., 5% CO2 for 24 h. After 24 h, each well was added with 80 μl of cell disruption solution, and the cells were subjected to freeze thawing once to be sufficiently disrupted. As for the cell lysis solution of each well, its activities to firefly luciferase and Renila luciferase were separately measured.

estrogen receptor = assay: Estrogen receptor activation test: overall estrogen activity and ERβ versus ERα comparison; settings: for ERβ/ERα (both % of estradiol at 10^−8M): Hela cells; for estrogen activity / estrogen receptor activation (in words): estradiol as positive control
Procedure: as §1, §4

ERα = target: T2, ERα (Homo sapiens, UniProt P03372); assay: ERα luciferase reporter gene transcription activation in transfected Hela cells; settings: for ERα (% of the control) mean ± S.D. / ERα (% of estradiol): Hela cells; for ERα (% of the control) mean ± S.D.: 24 h; for ERα (% of estradiol): estradiol at 10^−8M
T2 construct: expressed in transfected cells; host or cells: Hela cells (ER expression free)
T2 sequence (P03372 1-595): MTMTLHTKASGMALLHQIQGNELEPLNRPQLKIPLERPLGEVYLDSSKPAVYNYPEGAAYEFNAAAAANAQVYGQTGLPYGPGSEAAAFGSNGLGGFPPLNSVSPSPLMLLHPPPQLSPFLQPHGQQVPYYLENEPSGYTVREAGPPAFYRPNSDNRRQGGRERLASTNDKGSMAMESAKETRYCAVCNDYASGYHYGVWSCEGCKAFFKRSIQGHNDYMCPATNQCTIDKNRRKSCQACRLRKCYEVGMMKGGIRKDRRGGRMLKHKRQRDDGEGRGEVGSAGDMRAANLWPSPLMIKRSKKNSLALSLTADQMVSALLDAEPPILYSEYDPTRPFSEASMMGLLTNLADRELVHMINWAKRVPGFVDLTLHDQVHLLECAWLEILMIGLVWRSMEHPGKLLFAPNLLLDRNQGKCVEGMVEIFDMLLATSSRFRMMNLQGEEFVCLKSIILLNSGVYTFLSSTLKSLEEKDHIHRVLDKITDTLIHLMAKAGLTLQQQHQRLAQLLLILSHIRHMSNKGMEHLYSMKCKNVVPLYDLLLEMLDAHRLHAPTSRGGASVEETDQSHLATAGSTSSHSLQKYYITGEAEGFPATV
From the text: as §1, §2, §3, §4

Compound	ERβ (% of the control) mean ± S.D. (ERβ; 10^−5 M)	ERβ (% of estradiol) (ERβ; 10^−5 M)	ERβ (% of the control) mean ± S.D. (ERβ; 10^−6 M)	ERβ (% of estradiol) (ERβ; 10^−6 M)	ERβ (% of the control) mean ± S.D. (ERβ; 10^−7 M)	ERβ (% of estradiol) (ERβ; 10^−7 M)	ERβ (% of the control) mean ± S.D. (ERβ; 10^−8 M)	ERβ (% of estradiol) (ERβ; 10^−8 M)	concentration at which the transcriptional activity of ERβ is agonized (ERβ; luciferase reporter gene)	ERβ/ERα (both % of estradiol at 10^−8M) (estrogen receptor; sample 10^−6 M)	ERβ/ERα (both % of estradiol at 10^−8M) (estrogen receptor; sample 10^−7 M)	ERβ/ERα (both % of estradiol at 10^−8M) (estrogen receptor; sample 10^−8 M)	selectivity to receptor subtypes (ERα vs ERβ) (estrogen receptor; result in words)	ERα (% of the control) mean ± S.D. (ERα; 10^−6 M)	ERα (% of estradiol) (ERα; 10^−6 M)	ERα (% of the control) mean ± S.D. (ERα; 10^−7 M)	ERα (% of estradiol) (ERα; 10^−7 M)	ERα (% of the control) mean ± S.D. (ERα; 10^−8 M)	ERα (% of estradiol) (ERα; 10^−8 M)	concentration at which the transcriptional activity of ERα is agonized (ERα; luciferase reporter gene)	further results
O=C1C[C@@H](c2ccc(O[C@@H]3O[C@H](CO)[C@@H](O)[C@H](O)[C@H]3O)cc2)Oc2cc(O)cc(O)c21 [Naringenin-4′-O-glucoside, naringenin-4′-O-glucoside]	215.85 ± 22.32 % of the control	(108.71) % of estradiol	207.11 ± 15.76 % of the control	(104.30) % of estradiol	200.66 ± 5.22 % of the control	(101.06) % of estradiol	180.98 ± 10.46 % of the control	(91.14) % of estradiol	10^−9-10^−5 M	1.07	1.13	1.18	a higher selectivity to ERβ than ERα	198.72 ± 3.99 % of the control	(97.08) % of estradiol	182.34 ± 5.97 % of the control	(89.08) % of estradiol	157.62 ± 14.54 % of the control	(77.00) % of estradiol	10^−9-10^−5 M	ERβ (% of the control) mean ± S.D. (ERβ; 10^−9 M): 137.90 ± 9.40 % of the control; ERβ (% of estradiol) (ERβ; 10^−9 M): (69.45) % of estradiol; ERβ/ERα (both % of estradiol at 10^−8M) (estrogen receptor; sample 10^−5 M): 1.18; ERβ/ERα (both % of estradiol at 10^−8M) (estrogen receptor; sample 10^−9 M): 1.29; estrogen activity / estrogen receptor activation (in words) (estrogen receptor): show relevance to estrogen receptor activation; estrogen activity / estrogen receptor activation (in words) (estrogen receptor; listed as naringenin-4′-β-glucoside): potent activity of estrogen; dose dependence of agonism of ERα and ERβ transcriptional activity (estrogen receptor; result in words): in a dose dependent manner; ERα (% of the control) mean ± S.D. (ERα; 10^−5 M): 188.07 ± 18.61 % of the control; ERα (% of estradiol) (ERα; 10^−5 M): (91.88) % of estradiol; ERα (% of the control) mean ± S.D. (ERα; 10^−9 M): 110.04 ± 5.59 % of the control; ERα (% of estradiol) (ERα; 10^−9 M): (53.76) % of estradiol
Cc1cc(O)c2c(c1)C(=O)c1cc(O)cc(O)c1C2=O [Emodin, emodin]	–	–	145.21 ± 8.06 % of the control	(65.63) % of estradiol	106.60 ± 10.76 % of the control	(48.18) % of estradiol	104.92 ± 9.08 % of the control	(47.42) % of estradiol	10^−6 M	1.03	1.00	1.00	no receptor selectivity	146.40 ± 18.07 % of the control	(64.01) % of estradiol	109.96 ± 11.33 % of the control	(48.07) % of estradiol	108.48 ± 27.45 % of the control	(47.43) % of estradiol	10^−6 M	ERβ (% of the control) mean ± S.D. (ERβ; 10^−9 M): 104.68 ± 13.96 % of the control; ERβ (% of estradiol) (ERβ; 10^−9 M): 47.31 % of estradiol; ERβ/ERα (both % of estradiol at 10^−8M) (estrogen receptor; sample 10^−9 M): 1.07; estrogen activity / estrogen receptor activation (in words) (estrogen receptor): show relevance to estrogen receptor activation; ERα (% of the control) mean ± S.D. (ERα; 10^−9 M): 101.27 ± 15.90 % of the control; ERα (% of estradiol) (ERα; 10^−9 M): (44.27) % of estradiol
catechin	115.59 ± 13.39 % of the control	(59.86) % of estradiol	103.71 ± 9.07 % of the control	(53.71) % of estradiol	102.57 ± 1.04 % of the control	(53.12) % of estradiol	101.93 ± 2.27 % of the control	(52.79) % of estradiol	10^−5 M	1.05	1.06	1.09	no significant selectivity to receptor subtypes	108.85 ± 8.87 % of the control	(51.22) % of estradiol	106.72 ± 12.84 % of the control	(50.22) % of estradiol	102.89 ± 10.21 % of the control	(48.42) % of estradiol	10^−5 M	ERβ/ERα (both % of estradiol at 10^−8M) (estrogen receptor; sample 10^−5 M): 1.28; estrogen activity / estrogen receptor activation (in words) (estrogen receptor): show relevance to estrogen receptor activation; also recorded: potent activity of estrogen; ERα (% of the control) mean ± S.D. (ERα; 10^−5 M): 128.00 ± 8.74 % of the control; ERα (% of estradiol) (ERα; 10^−5 M): (60.23) % of estradiol
O=C(O[C@@H]1Cc2c(O)cc(O)cc2O[C@@H]1c1ccc(O)c(O)c1)c1cc(O)c(O)c(O)c1 [(−)Epicatechin-3-O-gallate, (−)epicatechin-3-O-gallate]	137.80 ± 15.93 % of the control	(75.87) % of estradiol	148.13 ± 4.22 % of the control	(81.56) % of estradiol	159.55 ± 28.00 % of the control	(87.84) % of estradiol	131.16 ± 15.95 % of the control	(77.72) % of estradiol	10^−8-10^−5 M	0.90	0.93	0.97	a higher selectivity to ERα than ERβ	192.40 ± 27.72 % of the control	(90.43) % of estradiol	200.50 ± 13.72 % of the control	(94.24) % of estradiol	170.00 ± 13.87 % of the control	(79.90) % of estradiol	10^−8-10^−5 M	ERβ (% of the control) mean ± S.D. (ERβ; 10^−9 M): 97.75 ± 17.66 % of the control; ERβ (% of estradiol) (ERβ; 10^−9 M): (53.82) % of estradiol; concentration of the highest ERβ transcription activity (ERβ; luciferase reporter gene): 10^−7 M; ERβ/ERα (both % of estradiol at 10^−8M) (estrogen receptor; sample 10^−5 M): 0.94; ERβ/ERα (both % of estradiol at 10^−8M) (estrogen receptor; sample 10^−9 M): 0.94; estrogen activity / estrogen receptor activation (in words) (estrogen receptor; listed as (−) epicatechin-3-O-gallate): show relevance to estrogen receptor activation; estrogen activity / estrogen receptor activation (in words) (estrogen receptor; listed as (−)epicatechin-3-O-gallate): potent activity of estrogen; ERα (% of the control) mean ± S.D. (ERα; 10^−5 M): 171.88 ± 22.57 % of the control; ERα (% of estradiol) (ERα; 10^−5 M): (80.79) % of estradiol; ERα (% of the control) mean ± S.D. (ERα; 10^−9 M): 121.95 ± 10.76 % of the control; ERα (% of estradiol) (ERα; 10^−9 M): (57.32) % of estradiol; concentration of the highest ERα transcription activity (ERα; luciferase reporter gene): 10^−7 M
